Measured values taken from patent publication US8389500B2, “Fused heterocyclic compounds as ion channel modulators” (Gilead Sciences, Inc., priority 2008, dated 2013).

Molecular target: T1, wild-type human cardiac sodium channel, hNav1.5 (late sodium current) (Homo sapiens, UniProt Q14524)
T1 construct: host or cells: HEK293
Assay: Late INa screening assay (PatchXpress whole cell patch clamp)
Format: cell-based
Details: 10 μM test compound; HEK293 hNav1.5; late INa generated with 10 μM Tefluthrin (some experiments 50 nM ATX II); read-out: Late INa % blk (10 μM test cmpd)
Procedure: The late sodium current (Late INa) and peak sodium current (Peak INa) assays are performed on an automated electrophysiology platform, PatchXpress 7000A (MDS Analytical Technologies, Sunnyvale, Calif.), which uses the whole cell patch clamp technique to measure currents through the cell membrane of up to 16 cells at a time. The assay uses an HEK293 (human embryonic kidney) cell line heterologously expressing the wild-type human cardiac sodium channel, hNav1.5, purchased from Millipore (Billerica, Mass.). No beta subunits were coexpressed with the Na channel alpha subunit. Cells are maintained with standard tissue culture procedures and stable channel expression is maintained with 400 μg/ml Geneticin in the culture medium. […] Experiments are carried out at 24-27° C.
For both the Late INa and Peak INa assays, series resistance compensation is set to 50% and whole-cell compensation is performed automatically. […] Currents through open sodium channels are automatically recorded and stored in the DataXpress2 database (MDS Analytical Technologies, Sunnyvale, Calif.). Analysis is performed using DataXpress2 analysis software and data are compiled in Excel.
Compound stocks are routinely made in glass vials to 10 mM in dimethyl sulfoxide (DMSO). In some cases, when compounds are not soluble in DMSO, they are made in 100% ethanol. Stocks are sonicated as necessary. The extracellular solution for screening Late INa is composed of: 140 mM NaCl, 4 mM KCl, 1.8 mM CaCl2, 0.75 mM MgCl2, and 5 mM HEPES with pH adjusted to 7.4 using NaOH. The extracellular solution for screening Peak INa is composed of: 20 mM NaCl, 120 mM N-methyl-D glucamine, 4 mM KCl, 1.8 mM CaCl2, 0.75 mM MgCl2, and 5 mM HEPES with pH adjusted to 7.4 using HCl. The intracellular solution used to perfuse the inside of the cells for both the Late INa and Peak INa assays contains: 120 mM CsF, 20 mM CsCl, 5 mM EGTA, 5 mM HEPES and pH adjusted to 7.4 with CsOH. […] The 0Na extracellular solution used at the end of each experiment for the Late INa and Peak INa assays to measure baseline current contains: 140 mM N-methyl-D-glucamine; 4 mM KCl; 1.8 mM CaCl2; 0.75 mM MgCl2; 5 mM HEPES and pH was adjusted to 7.4 with HCl.
For the Late INa assay, sodium channels are activated every 10 seconds (0.1 Hz) by depolarizing the cell membrane to −20 mV for 250 milliseconds (ms) from a holding potential of −120 mV. In response to a −20 mV voltage step, typical Nav1.5 sodium currents activate rapidly to a peak negative current and then inactivate nearly completely within […].
All compounds are tested to determine their activity in blocking the late sodium current. Late INa current is generated by adding 10 μM Tefluthrin (pyrethroid) to the extracellular solution while recording Na currents For some experiments, 50 nM ATX II (sea anemone toxin), another late Na activator, was used to generate the late component. […] After establishing the whole cell recording configuration, late INa activators are added to each well 4 times over a 16-17 minute period so that the late component of the Na current reaches a stable value. […] Measurements are made at the end of exposure to the third compound addition and values are normalized to the current level when all Na^+ is removed from the extracellular solution after two additions of ONa-ECF. Results are reported as percent block of late INa

T1 sequence (Q14524 whole entry): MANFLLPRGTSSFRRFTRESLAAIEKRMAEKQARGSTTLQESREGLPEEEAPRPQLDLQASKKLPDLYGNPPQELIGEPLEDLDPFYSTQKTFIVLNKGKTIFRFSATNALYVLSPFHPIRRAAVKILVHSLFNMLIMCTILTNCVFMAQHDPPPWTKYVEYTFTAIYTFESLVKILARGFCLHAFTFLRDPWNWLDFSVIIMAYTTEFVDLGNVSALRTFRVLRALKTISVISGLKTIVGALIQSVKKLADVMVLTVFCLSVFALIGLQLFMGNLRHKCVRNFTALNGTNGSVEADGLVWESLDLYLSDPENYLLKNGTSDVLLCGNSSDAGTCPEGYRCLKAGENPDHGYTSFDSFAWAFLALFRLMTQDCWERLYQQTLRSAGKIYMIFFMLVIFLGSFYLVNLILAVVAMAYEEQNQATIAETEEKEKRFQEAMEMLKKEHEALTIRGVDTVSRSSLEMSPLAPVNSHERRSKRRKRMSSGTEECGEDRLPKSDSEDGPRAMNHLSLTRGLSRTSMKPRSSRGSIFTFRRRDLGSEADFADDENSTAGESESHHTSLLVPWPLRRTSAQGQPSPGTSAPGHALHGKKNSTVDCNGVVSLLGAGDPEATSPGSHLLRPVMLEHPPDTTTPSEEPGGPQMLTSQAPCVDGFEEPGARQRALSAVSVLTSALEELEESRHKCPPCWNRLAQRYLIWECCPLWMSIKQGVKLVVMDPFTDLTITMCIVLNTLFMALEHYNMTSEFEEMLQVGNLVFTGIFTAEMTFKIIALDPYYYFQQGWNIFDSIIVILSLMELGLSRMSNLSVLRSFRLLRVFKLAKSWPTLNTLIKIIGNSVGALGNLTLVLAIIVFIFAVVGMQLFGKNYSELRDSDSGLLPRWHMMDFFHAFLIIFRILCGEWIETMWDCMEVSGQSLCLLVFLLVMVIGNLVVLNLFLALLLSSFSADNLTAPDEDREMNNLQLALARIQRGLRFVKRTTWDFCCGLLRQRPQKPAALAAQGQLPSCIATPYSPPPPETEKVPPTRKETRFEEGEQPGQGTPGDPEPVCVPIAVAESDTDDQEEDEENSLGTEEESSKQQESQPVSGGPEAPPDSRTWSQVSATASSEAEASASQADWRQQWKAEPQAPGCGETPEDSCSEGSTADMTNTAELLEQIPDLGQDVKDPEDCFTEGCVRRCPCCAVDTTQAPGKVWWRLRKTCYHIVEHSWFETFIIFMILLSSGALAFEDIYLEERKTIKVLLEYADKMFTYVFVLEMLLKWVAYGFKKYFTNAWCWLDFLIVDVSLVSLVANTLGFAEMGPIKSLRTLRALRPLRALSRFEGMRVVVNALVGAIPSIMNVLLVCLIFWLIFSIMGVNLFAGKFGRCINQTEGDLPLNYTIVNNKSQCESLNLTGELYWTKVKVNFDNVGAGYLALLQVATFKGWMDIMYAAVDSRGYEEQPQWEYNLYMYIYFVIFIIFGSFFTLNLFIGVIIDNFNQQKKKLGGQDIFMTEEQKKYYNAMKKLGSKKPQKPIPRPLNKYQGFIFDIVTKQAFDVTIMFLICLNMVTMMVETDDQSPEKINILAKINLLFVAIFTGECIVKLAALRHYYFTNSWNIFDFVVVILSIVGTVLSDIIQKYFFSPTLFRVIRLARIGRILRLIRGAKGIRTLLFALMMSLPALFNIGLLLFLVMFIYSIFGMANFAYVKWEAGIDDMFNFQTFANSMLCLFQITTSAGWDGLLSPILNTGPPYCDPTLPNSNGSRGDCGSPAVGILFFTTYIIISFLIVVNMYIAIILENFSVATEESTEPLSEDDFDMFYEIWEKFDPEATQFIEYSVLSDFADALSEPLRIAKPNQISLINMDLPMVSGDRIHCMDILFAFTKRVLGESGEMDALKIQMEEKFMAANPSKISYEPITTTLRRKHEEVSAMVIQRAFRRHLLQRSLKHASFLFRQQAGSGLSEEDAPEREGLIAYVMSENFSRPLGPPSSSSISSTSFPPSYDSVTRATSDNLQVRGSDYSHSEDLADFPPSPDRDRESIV

Row | Structure (SMILES) | inhibition at 10 µM [%]
1 | CS(=O)(=O)Nc1ccc(-c2ccc(F)cc2Cl)cc1Cl [PT-098, N-(2′,3-dichloro-4′-fluorobiphenyl-4-yl)methanesulfonamide] | 36.4
2 | CS(=O)(=O)Nc1ccc(-c2ccc(OC(F)(F)F)cc2)cc1OC(F)(F)F [PT-099, N-[3,4′-bis(trifluoromethoxy)biphenyl-4-yl]methanesulfonamide] | 8.9
3 | CS(=O)(=O)Nc1ccc(-c2cccc(OC(F)(F)F)c2)cc1OC(F)(F)F [PT-100, N-[3,3′-bis(trifluoromethoxy)biphenyl-4-yl]methanesulfonamide] | -0.7
4 | CC(C)(C)OC(=O)CN(c1ccc(-c2cccc(OC(F)(F)F)c2)c(F)c1)S(C)(=O)=O [PT-101, tert-butyl N-[2-fluoro-3′-(trifluoromethoxy)biphenyl-4-yl]-N-(methylsulfonyl)glycinate] | 72.9
5 | CC(C)(C)OC(=O)CN(c1ccc(-c2ccc(F)c(Cl)c2)c(Cl)c1)S(C)(=O)=O [PT-102, tert-butyl N-(2,3′-dichloro-4′-fluorobiphenyl-4-yl)-N-(methylsulfonyl)glycinate] | 53.6
6 | CS(=O)(=O)N(CC(=O)O)c1ccc(-c2cccc(OC(F)(F)F)c2)c(F)c1 [PT-103, N-[2-fluoro-3′-(trifluoromethoxy)biphenyl-4-yl]-N-(methylsulfonyl)glycine] | 21.2
7 | CS(=O)(=O)N(CC(=O)O)c1ccc(-c2ccc(F)c(Cl)c2)c(Cl)c1 [PT-104, N-(2,3′-dichloro-4′-fluorobiphenyl-4-yl)-N-(methylsulfonyl)glycine] | 14.2
8 | Cc1cc(N([C@@H](C)C(=O)O)S(C)(=O)=O)ccc1-c1ccc(Oc2ccccc2)cc1 [PT-105, N-(2-methyl-4′-phenoxybiphenyl-4-yl)-N-(methylsulfonyl)alanine] | 5.8
9 | Cc1cc(-c2ccc(Oc3ccccc3)cc2)c(Cl)cc1N(CC(=O)O)S(C)(=O)=O [PT-106, N-(2-chloro-5-methyl-4′-phenoxybiphenyl-4-yl)-N-(methylsulfonyl)glycine] | 42
10 | Cc1cc(N(Cc2ccc(C(=O)OC(C)(C)C)cc2)S(C)(=O)=O)ccc1-c1ccc(Oc2ccccc2)cc1 [PT-107, tert-butyl 4-{[(2-methyl-4′-phenoxybiphenyl-4-yl)(methylsulfonyl)amino]methyl}benzoate] | 21.2
11 | COc1ccc(NS(C)(=O)=O)cc1-c1cccc(OC(F)(F)F)c1 [PT-109, N-[6-methoxy-3′-(trifluoromethoxy)biphenyl-3-yl]methanesulfonamide] | 35.1
12 | COc1ccc(NS(C)(=O)=O)cc1-c1ccc(Cl)c(F)c1 [PT-110, N-(4′-chloro-3′-fluoro-6-methoxybiphenyl-3-yl)methanesulfonamide] | 39.9
13 | CS(=O)(=O)N(CC(=O)O)c1ccc(-c2ccc(C(F)(F)F)cc2)c(Cl)c1 [PT-111, N-[2-chloro-4′-(trifluoromethyl)biphenyl-4-yl]-N-(methylsulfonyl)glycine] | 14.6
14 | Cc1cc(-c2ccc(Oc3ccccc3)cc2)c(Cl)cc1N(Cc1ccc(C(=O)O)cc1)S(C)(=O)=O [PT-113, 4-{[(2-chloro-5-methyl-4′-phenoxybiphenyl-4-yl)(methylsulfonyl)amino]methyl}benzoic acid] | 34
15 | O=S(=O)(Nc1ccc(-c2ccc(Oc3ccccc3)cc2)cc1OC(F)(F)F)C1CC1 [PT-114, N-[4′-phenoxy-3-(trifluoromethoxy)biphenyl-4-yl]cyclopropanesulfonamide] | 14.1
16 | N#Cc1cc(-c2ccc(Oc3ccccc3)cc2)ccc1NS(=O)(=O)C1CC1 [PT-115, N-(3-cyano-4′-phenoxybiphenyl-4-yl)cyclopropanesulfonamide] | 61.8
17 | COC(=O)c1cc(-c2ccc(Oc3ccccc3)cc2)ccc1NS(=O)(=O)C1CC1 [PT-116, methyl 4-[(cyclopropylsulfonyl)amino]-4′-phenoxybiphenyl-3-carboxylate] | 11.2

Row | Structure (SMILES) | inhibition at 10 µM [%]
18 | O=C(O)c1cc(-c2ccc(Oc3ccccc3)cc2)ccc1NS(=O)(=O)C1CC1 [PT-117, 4-[(cyclopropylsulfonyl)amino]-4′-phenoxybiphenyl-3-carboxylic acid] | 40.7
19 | COC(=O)c1cc(-c2ccc(Oc3ccccc3)cc2)ccc1NS(C)(=O)=O [PT-118, methyl 4-[(methylsulfonyl)amino]-4′-phenoxybiphenyl-3-carboxylate] | 40.8
20 | CS(=O)(=O)Nc1ccc(-c2ccc(Oc3ccccc3)cc2)cc1OC(F)(F)F [PT-119, N-[4′-phenoxy-3-(trifluoromethoxy)biphenyl-4-yl]methanesulfonamide] | 6.6
21 | CS(=O)(=O)Nc1ccc(-c2ccc(Oc3ccccc3)cc2)cc1C(=O)O [PT-120, 4-[(methylsulfonyl)amino]-4′-phenoxybiphenyl-3-carboxylic acid] | 27
22 | COC(=O)c1cc(-c2ccc(C(F)(F)F)cc2)ccc1NS(C)(=O)=O [PT-121, methyl 4-[(methylsulfonyl)amino]-4′-(trifluoromethyl)biphenyl-3-carboxylate] | 40.5
23 | CS(=O)(=O)Nc1ccc(-c2ccc(C(F)(F)F)cc2)cc1C(=O)O [PT-122, 4-[(methylsulfonyl)amino]-4′-(trifluoromethyl)biphenyl-3-carboxylic acid] | 25.4
24 | N#Cc1cc(NS(=O)(=O)C2CC2)ccc1-c1ccc(Oc2ccccc2)cc1 [PT-124, N-(2-cyano-4′-phenoxybiphenyl-4-yl)cyclopropanesulfonamide] | 32.2
25 | COc1cccc(S(=O)(=O)Nc2cccc(-c3ccc(Cl)cc3)c2)c1 [PT-127, N-(4′-chlorobiphenyl-3-yl)-3-methoxybenzenesulfonamide] | 25
26 | CC(C)(C)OC(=O)CN(c1ccc(-c2ccc(C(F)(F)F)cc2)c(Cl)c1)S(C)(=O)=O [PT-128, tert-butyl 2-(N-(2-chloro-4′-(trifluoromethyl)biphenyl-4-yl)methylsulfonamido)acetate] | 25.7
27 | C#Cc1cc(NS(C)(=O)=O)ccc1-c1ccc(Oc2ccccc2)cc1 [PT-129, N-(2-ethynyl-4′-phenoxybiphenyl-4-yl)methanesulfonamide] | 44.4
28 | N#Cc1cc(NS(=O)(=O)C2CC2)ccc1-c1ccc(C(F)(F)F)cc1 [PT-130, N-(2-cyano-4′-(trifluoromethyl)biphenyl-4-yl)cyclopropanesulfonamide] | 26
29 | CS(=O)(=O)Nc1cccc(-c2ccc(Oc3ccc(C(=O)O)cc3)cc2)c1 [PT-131, 4-(3′-(methylsulfonamido)biphenyl-4-yloxy)benzoic acid] | 20.8
30 | CS(=O)(=O)Nc1cccc(-c2ccc(C(F)(F)F)c(F)c2)c1 [PT-132, N-(3′-fluoro-4′-(trifluoromethyl)biphenyl-3-yl)methanesulfonamide] | 65.9
31 | Cc1cc(N(Cc2ccc(CC(=O)O)cc2)S(=O)(=O)C2CC2)ccc1-c1ccc(Oc2ccccc2)cc1 [PT-133, 2-(4-((N-(2-methyl-4′-phenoxybiphenyl-4-yl)cyclopropanesulfonamido)methyl)phenyl)acetic acid] | 34.1
32 | COc1cc(N(Cc2ccc(C(=O)O)cc2)S(C)(=O)=O)ccc1-c1ccc(Oc2ccccc2)cc1 [PT-134, 4-((N-(2-methoxy-4′-phenoxybiphenyl-4-yl)methylsulfonamido)methyl)benzoic acid] | 3.9
33 | CS(=O)(=O)N(Cc1ccc(-c2nnn[nH]2)cc1)c1ccc(-c2ccc(Oc3ccccc3)cc2)c(Cl)c1 [PT-135, N-(4-(1H-tetrazol-5-yl)benzyl)-N-(2-chloro-4′-phenoxybiphenyl-4-yl)methanesulfonamide] | 9.7
